According to US20120184556A1, “SUBSTITUTED ENZOIMIDAZOLESULFONAMIDES AND SUBSTITUTED INDOLESULFONAMIDES AS MGLUR4 POTENTIATORS” (priority 2009, published 2012):
Structures can show the parent of a compound that is named as a salt.

Molecular target: T1, human mGluR4 (Homo sapiens, UniProt Q14833)
T1 construct: expressed in transfected cells; host or cells: Chinese Hamster Ovary (CHO) cells
Experiment: human mGluR4 potentiation assay, CHO cells, Fluo-4 calcium fluorescence, agonist EC20
Format: cell-based
Conditions: for Emax: CHO, maximum extent of potentiation, human mGluR4, read-out: GluMax; for EC50: potentiation of human mGluR4 response to EC20 agonist, read-out: hEC50
Protocol: The disclosed compounds and compositions can be evaluated for their ability to act as a potentiator of metabotropic glutamate receptor activity, in particular mGluR4 activity, by any suitable known methodology known in the art. For example, Chinese Hamster Ovary (CHO) cells transfected with human mGluR4 or HEK cells co-transfected with rat mGluR4 and the G-protein regulated Inwardly Rectifying Potassium channel (GIRK) were plated in clear bottom assay plates for assay in a Hamamatsu FDSS Fluorometric Plate Reader. The cells were loaded with either the Ca2+-sensitive fluorescent dye Fluo-4 or the thallium responsive dye BTC, AM and the plates were washed and placed into a suitable kinetic plate reader. For human mGluR4 assays, a fluorescence baseline was established for 3-5 seconds, the disclosed compounds were then added to the cells, and the response in cells was measured. Approximately two and a half minutes later, a concentration of mGluR4 agonist (e.g. glutamate or L-AP4) eliciting approximately 20% (EC20) of the maximal agonist response was added to the cells, and the response was measured. Two minutes later, a concentration of mGluR4 agonist (e.g. glutamate or L-AP4) eliciting 80% (EC80) of the maximal agonist response was added to the cells, and the response was measured. For rat mGluR4/GIRK experiments, a baseline was established for approximately five seconds, disclosed compounds were added, and either an EC20 or EC80 concentration of agonist was added approximately two and one half minutes later. Potentiation of the agonist response of mGluR4 by the disclosed compounds was observed as an increase in response to the EC20 concentration of agonist in the presence of compound compared to the response to agonist in the absence of compound. Similarly, antagonism of the agonist response of mGluR4 by the disclosed compounds was observed as a decrease in response to the EC80 concentration of agonist in the presence of compound compared to the response to agonist in the absence of compound.
The above described assay operated in two modes. In the first mode, a range of concentrations of the disclosed compounds are added to cells, followed by a single fixed concentration of agonist. If the compound acts as a potentiatior, an EC50 value for potentiation and a maximum extent of potentiation by the compound at this concentration of agonist is determined by non-linear curve fitting. If the compound acts as a noncompetitive antagonist, an IC50 value is determined by non-linear curve fitting. In the second mode, several fixed concentrations of the disclosed compounds are added to various wells on a plate, followed by a range in concentrations of agonist for each concentration of disclosed compound. The EC50 values for the agonist at each concentration of compound are determined by non-linear curve fitting. A decrease in the EC50 value of the agonist with increasing concentrations of the sample compound (a leftward shift of the agonist concentration-response curve) is an indication of the degree of mGluR4 potentiation at a given concentration of the sample compound. A decrease in the maximal response of the agonist with increasing concentrations of the sample compounds, with or without a rightward shift in agonist potency, is an indication of the degree of noncompetitive antagonism at mGluR4. The second mode also indicates whether the sample compounds also affect the maximum response to mGluR4 to agonists.

T1 sequence (Q14833 33-912): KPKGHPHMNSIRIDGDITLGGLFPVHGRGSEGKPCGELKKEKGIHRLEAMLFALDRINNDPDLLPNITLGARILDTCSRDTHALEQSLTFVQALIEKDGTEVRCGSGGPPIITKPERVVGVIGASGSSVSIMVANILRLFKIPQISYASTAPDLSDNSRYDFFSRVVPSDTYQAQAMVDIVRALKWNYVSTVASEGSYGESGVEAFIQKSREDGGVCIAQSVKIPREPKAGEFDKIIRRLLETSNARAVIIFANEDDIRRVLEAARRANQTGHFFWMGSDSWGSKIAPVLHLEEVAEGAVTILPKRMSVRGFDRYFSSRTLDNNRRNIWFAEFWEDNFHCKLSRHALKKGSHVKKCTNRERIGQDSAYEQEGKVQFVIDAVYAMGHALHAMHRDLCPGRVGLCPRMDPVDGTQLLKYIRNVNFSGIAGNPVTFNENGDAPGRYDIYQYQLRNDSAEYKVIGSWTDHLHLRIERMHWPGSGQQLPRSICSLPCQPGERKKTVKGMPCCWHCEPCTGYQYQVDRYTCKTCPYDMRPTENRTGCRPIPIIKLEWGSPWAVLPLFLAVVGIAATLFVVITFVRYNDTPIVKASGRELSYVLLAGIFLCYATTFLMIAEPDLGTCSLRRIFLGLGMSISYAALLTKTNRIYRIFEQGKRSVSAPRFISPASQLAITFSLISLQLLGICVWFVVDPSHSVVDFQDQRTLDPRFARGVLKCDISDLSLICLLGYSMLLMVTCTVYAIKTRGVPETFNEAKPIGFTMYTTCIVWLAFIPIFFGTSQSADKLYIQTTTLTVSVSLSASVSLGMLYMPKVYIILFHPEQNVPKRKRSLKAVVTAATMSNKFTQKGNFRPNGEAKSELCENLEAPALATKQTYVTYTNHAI

In the case of O=S(=O)(Nc1ccccc1Cl)c1ccc2[nH]c(-c3ncccc3F)nc2c1 [Example 15, N-(2-Chlorophenyl)-2-(3-fluoropyridin-2-yl)-1H-benzo[d]imidazole-5-sulfonamide], the Emax is reported as 192% and the EC50 is reported as 747 nM.

O=S(=O)(Nc1ccccc1Cl)c1ccc2[nH]c(-c3c(F)cccc3Cl)nc2c1 [Example 22, 2-(2-chloro-6-fluorophenyl)-N-(2-chlorophenyl)-1H-benzo[d]imidazole-5-sulfonamide] showed an Emax of 59% and an EC50 of 5750 nM.

For O=S(=O)(Nc1ccccc1Cl)c1ccc2[nH]c(-c3ccccc3C(F)(F)F)nc2c1 [Example 23, N-(2-chlorophenyl)-2-(2-(trifluoromethyl)phenyl)-1H-benzo[d]imidazole-5-sulfonamide], the Emax was 36% and the EC50 was 9440 nM.

Work on O=S(=O)(Nc1ccccc1Cl)c1ccc2[nH]c(-c3cnccn3)nc2c1 [Example 7, N-(2-Chlorophenyl)-2-(pyrazin-2-yl)-1H-benzo[d]imidazole-5-sulfonamide] yielded an Emax of 149% and an EC50 of 1490 nM.

O=S(=O)(Nc1ccccc1Cl)c1ccc2[nH]c(-c3cccnn3)nc2c1 [Example 8, N-(2-chlorophenyl)-2-(pyridazin-3-yl)-1H-benzo[d]imidazole-5-sulfonamide TFA salt] was tested, and the Emax was 204% and the EC50 was 5670 nM.

Work on O=S(=O)(Nc1ccccc1Cl)c1ccc2[nH]c(-c3nccs3)nc2c1 [Example 14, N-(2-Chlorophenyl)-2-(thiazol-2-yl)-1H-benzo[d]imidazole-5-sulfonamide] yielded an Emax of 194% and an EC50 of 770 nM.

Work on O=S(=O)(Nc1ccccc1Cl)c1ccc2[nH]c(-c3ncc(F)cc3F)nc2c1 [Example 31, N-(2-chlorophenyl)-2-(3,5-difluoropyridin-2-yl)-1H-benzo[d]imidazole-5-sulfonamide] yielded an Emax of 123% and an EC50 of 473 nM.

O=S(=O)(Nc1ccccc1Cl)c1ccc2[nH]c(-c3cccc(F)n3)nc2c1 [Example 13, N-(2-Chlorophenyl)-2-(6-fluoropyridin-2-yl)-1H-benzo[d]imidazole-5-sulfonamide] was tested, and the Emax was 145% and the EC50 was 111 nM.

Work on O=S(=O)(Nc1cccnc1)c1ccc2[nH]c(-c3ccccc3)nc2c1 [Example 16, 2-Phenyl-N-(pyridin-3-yl)-1H-benzo[d]imidazole-5-sulfonamide bis TFA salt] yielded an Emax of 41% and an EC50 of 5950 nM.

CN1CCCCC1c1nc2cc(S(=O)(=O)Nc3ccccc3Cl)ccc2[nH]1 (centres unmarked) [Example 53, N-(2-chlorophenyl)-2-(1-methylpiperidin-2-yl)-1H-benzo[d]imidazole-5-sulfonamide] showed an Emax of 59% and an EC50 greater than 10000 nM.

With O=S(=O)(Nc1ccccc1Cl)c1ccc2[nH]c(-c3ccccc3F)nc2c1 [Example 21, N-(2-chlorophenyl)-2-(2-fluorophenyl)-1H-benzo[d]imidazole-5-sulfonamide] the Emax was 64% and the EC50 was 988 nM.

With O=S(=O)(Nc1ccc(F)cc1F)c1ccc2[nH]c(-c3ccccc3)nc2c1 [Example 36, N-(2,4-difluorophenyl)-2-phenyl-1H-benzo[d]imidazole-5-sulfonamide] the Emax was 73% and the EC50 was 296 nM.

Compound O=S(=O)(Nc1ccccc1Cl)c1ccc2[nH]c(-c3cccc4c3OCO4)nc2c1 [Example 20, 2-(benzo[d][1,3]dioxol-4-yl)-N-(2-chlorophenyl)-1H-benzo[d]imidazole-5-sulfonamide] has an Emax of 49% and an EC50 of 172 nM.

Compound O=S(=O)(Nc1ccccc1F)c1ccc2[nH]c(-c3ccsc3)nc2c1 [Example 38, N-(2-fluorophenyl)-2-(thiophen-3-yl)-1H-benzo[d]imidazole-5-sulfonamide] has an Emax of 42% and an EC50 of 369 nM.

Compound O=S(=O)(Nc1ccccc1Cl)c1ccc2[nH]c(C3CCCCO3)nc2c1 (centres unmarked) [Example 46, N-(2-chlorophenyl)-2-(tetrahydro-2H-pyran-2-yl)-1H-benzo[d]imidazole-5-sulfonamide] has an Emax of 112% and an EC50 of 2350 nM.

O=S(=O)(Nc1ccccc1Cl)c1ccc2[nH]c(-c3ccc(Cl)o3)nc2c1 [Example 30, 2-(5-chlorofuran-2-yl)-N-(2-chlorophenyl)-1H-benzo[d]imidazole-5-sulfonamide] showed an Emax of 76% and an EC50 of 199 nM.

For O=S(=O)(NC1CCCC1)c1ccc2[nH]c(-c3ccccc3)nc2c1 [Example 18, N-Cyclopentyl-2-phenyl-1H-benzo[d]imidazole-5-sulfonamide TFA salt], the Emax was 105% and the EC50 was 11700 nM.

With O=S(=O)(Nc1c(F)cccc1F)c1ccc2[nH]c(-c3ccccc3)nc2c1 [Example 28, N-(2,6-difluorophenyl)-2-phenyl-1H-benzo[d]imidazole-5-sulfonamide] the Emax was 38% and the EC50 was 318 nM.

Work on O=S(=O)(Nc1ccccc1Cl)c1ccc2[nH]c(-c3cscn3)nc2c1 [Example 10, N-(2-Chlorophenyl)-2-(thiazol-4-yl)-1H-benzo[d]imidazole-5-sulfonamide bis TFA salt] yielded an Emax of 169% and an EC50 of 310 nM.

For CN(c1ccccc1F)S(=O)(=O)c1ccc2[nH]c(-c3ccccn3)nc2c1 [Example 50, N-(2-fluorophenyl)-N-methyl-2-(pyridin-2-yl)-1H-benzo[d]imidazole-5-sulfonamide], the Emax was 61% and the EC50 was 1110 nM.

For O=S(=O)(Nc1ccccc1Br)c1ccc2[nH]c(-c3ccccc3)nc2c1 [Example 1, N-(2-Bromophenyl)-2-phenyl-1H-benzo[d]imidazole-5-sulfonamide], the Emax was 60% and the EC50 was 499 nM.

For O=S(=O)(Nc1ccccc1F)c1ccc2[nH]c(-c3ccccc3)nc2c1 [Example 17, N-(2-Fluorophenyl)-2-phenyl-1H-benzo[d]imidazole-5-sulfonamide TFA salt], the Emax was 87% and the EC50 was 320 nM.

O=S(=O)(Nc1ccccc1Cl)c1ccc2[nH]c(-c3c(F)cccc3F)nc2c1 [Example 24, N-(2-chlorophenyl)-2-(2,6-difluorophenyl)-1H-benzo[d]imidazole-5-sulfonamide] showed an Emax of 160% and an EC50 greater than 10000 nM.

Compound O=S(=O)(Nc1ccccc1Cl)c1ccc2[nH]c(-c3ccccn3)nc2c1 [Example 3, N-(2-Chlorophenyl)-2-(pyridin-2-yl)-1H-benzo[d]imidazole-5-sulfonamide] has an Emax of 226% and an EC50 of 72.3 nM.

O=S(=O)(Nc1ccc(F)cc1F)c1ccc2[nH]c(-c3ccsc3)nc2c1 [Example 42, N-(2,4-difluorophenyl)-2-(thiophen-3-yl)-1H-benzo[d]imidazole-5-sulfonamide] showed an Emax of 50% and an EC50 of 226 nM.

CC1CCN(S(=O)(=O)c2ccc3[nH]c(-c4ccccn4)nc3c2)CC1 [Example 45, 5-((4-methylpiperidin-1-yl)sulfonyl)-2-(pyridin-2-yl)-1H-benzo[d]imidazole] gave an Emax of 104% and an EC50 of 7450 nM.

Cc1nc[nH]c1-c1nc2cc(S(=O)(=O)Nc3ccccc3Cl)ccc2[nH]1 [Example 44, N-(2-chlorophenyl)-2-(4-methyl-1H-imidazol-5-yl)-1H-benzo[d]imidazole-5-sulfonamide] gave an Emax of 36% and an EC50 of 13400 nM.

Work on O=S(=O)(Nc1ccccc1Cl)c1ccc2[nH]c(-c3ccc(C(F)(F)F)o3)nc2c1 [Example 26, N-(2-chlorophenyl)-2-(5-(trifluoromethyl)furan-2-yl)-1H-benzo[d]imidazole-5-sulfonamide] yielded an Emax of 68% and an EC50 of 328 nM.

With O=S(=O)(Nc1ccc(F)cc1F)c1ccc2[nH]c(-c3nccs3)nc2c1 [Example 47, N-(2,4-difluorophenyl)-2-(thiazol-2-yl)-1H-benzo[d]imidazole-5-sulfonamide] the Emax was 147% and the EC50 was 709 nM.

O=S(=O)(Nc1ccccc1Cl)c1ccc2[nH]c(-c3ncc[nH]3)nc2c1 [Example 27, N-(2-chlorophenyl)-2-(1H-imidazol-2-yl)-1H-benzo[d]imidazole-5-sulfonamide] gave an Emax of 69% and an EC50 of 12800 nM.

With O=S(=O)(Nc1ccccc1Cl)c1ccc2[nH]c(-c3ccncn3)nc2c1 [Example 11, N-(2-Chlorophenyl)-2-(pyrimidin-4-yl)-1H-benzo[d]imidazole-5-sulfonamide] the Emax was 148% and the EC50 was 2830 nM.
